Data reported in ChEMBL document CHEMBL1201862, “PubChem BioAssay data set” (2004).
Activity calls are given as the source filed them.

Legend:
[1] = target: Peroxisome proliferator-activated receptor gamma/Nuclear receptor coactivator 2 (Homo sapiens, UniProt P37231); assay type: functional;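 also: agonist potency for raising coactivator recruitment to the receptor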
[2] = target: Peroxisome proliferator-activated receptor gamma/Nuclear receptor coactivator 1 (Homo sapiens, UniProt P37231); assay type: functional;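 also: agonist potency as compounds enhance coactivator SRC-1 recruitment to PPARgamma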
[3] = target: Peroxisome proliferator-activated receptor gamma/Nuclear receptor coactivator 3 (Homo sapiens, UniProt P37231); assay type: functional;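 also: agonist potency for raising coactivator recruitment to the receptor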
[4] = target: Beta-2 adrenergic receptor (Homo sapiens, UniProt P07550); experiment: beta2AR agonists driving receptor internalization, dose response, cell-based, FAP fluorogen, flow cytometry, cherry pick 1 (AID 588763); assay type: functional
INS1 [5] = experiment: protection of INS-1E cells from cytokine death, dose response, ATP luminescence, dry powder (AID 488844); assay type: functional, cell-based; details: Rattus norvegicus
INS1 [6] = experiment: protection from cytokine-driven beta-cell apoptosis, dose response, JC-1 fluorescence, INS-1E, dry powder, set 2 (AID 488867); assay type: functional, cell-based; details: Rattus norvegicus
INS1 [7] = experiment: protection from cytokine-induced mitochondrial depolarization, dose response, cell-based, INS-1E, JC-1 fluorescence ratio, dry powder (AID 488931); assay type: functional; details: Rattus norvegicus

Chain of Beta-2 adrenergic receptor (P07550 whole entry): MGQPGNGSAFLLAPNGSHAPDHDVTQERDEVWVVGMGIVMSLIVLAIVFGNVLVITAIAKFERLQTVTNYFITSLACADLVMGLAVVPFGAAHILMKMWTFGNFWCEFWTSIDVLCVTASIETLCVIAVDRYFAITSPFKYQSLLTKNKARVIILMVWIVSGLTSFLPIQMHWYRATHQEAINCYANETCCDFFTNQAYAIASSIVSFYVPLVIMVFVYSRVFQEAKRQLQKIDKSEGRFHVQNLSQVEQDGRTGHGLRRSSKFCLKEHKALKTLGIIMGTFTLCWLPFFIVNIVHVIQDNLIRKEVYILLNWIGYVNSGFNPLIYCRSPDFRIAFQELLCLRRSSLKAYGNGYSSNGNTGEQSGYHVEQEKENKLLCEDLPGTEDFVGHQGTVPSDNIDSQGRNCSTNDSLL
Chain of Peroxisome proliferator-activated receptor gamma/Nuclear receptor coactivator 1 (P37231 whole entry): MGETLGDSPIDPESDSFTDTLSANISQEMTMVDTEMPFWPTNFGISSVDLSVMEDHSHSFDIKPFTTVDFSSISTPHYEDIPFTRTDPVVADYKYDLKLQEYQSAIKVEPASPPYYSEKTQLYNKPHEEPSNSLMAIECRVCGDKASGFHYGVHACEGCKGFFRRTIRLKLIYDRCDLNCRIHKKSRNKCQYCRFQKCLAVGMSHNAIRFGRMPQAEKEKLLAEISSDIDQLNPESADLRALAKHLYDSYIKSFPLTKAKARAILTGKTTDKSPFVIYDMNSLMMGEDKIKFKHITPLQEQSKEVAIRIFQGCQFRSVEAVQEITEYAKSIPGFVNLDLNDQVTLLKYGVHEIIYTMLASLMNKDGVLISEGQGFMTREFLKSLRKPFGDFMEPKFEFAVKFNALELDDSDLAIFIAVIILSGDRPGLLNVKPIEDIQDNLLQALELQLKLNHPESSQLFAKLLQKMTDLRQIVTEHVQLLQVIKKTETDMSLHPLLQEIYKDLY
Chain of Peroxisome proliferator-activated receptor gamma/Nuclear receptor coactivator 1 (Q15788 whole entry, further chain): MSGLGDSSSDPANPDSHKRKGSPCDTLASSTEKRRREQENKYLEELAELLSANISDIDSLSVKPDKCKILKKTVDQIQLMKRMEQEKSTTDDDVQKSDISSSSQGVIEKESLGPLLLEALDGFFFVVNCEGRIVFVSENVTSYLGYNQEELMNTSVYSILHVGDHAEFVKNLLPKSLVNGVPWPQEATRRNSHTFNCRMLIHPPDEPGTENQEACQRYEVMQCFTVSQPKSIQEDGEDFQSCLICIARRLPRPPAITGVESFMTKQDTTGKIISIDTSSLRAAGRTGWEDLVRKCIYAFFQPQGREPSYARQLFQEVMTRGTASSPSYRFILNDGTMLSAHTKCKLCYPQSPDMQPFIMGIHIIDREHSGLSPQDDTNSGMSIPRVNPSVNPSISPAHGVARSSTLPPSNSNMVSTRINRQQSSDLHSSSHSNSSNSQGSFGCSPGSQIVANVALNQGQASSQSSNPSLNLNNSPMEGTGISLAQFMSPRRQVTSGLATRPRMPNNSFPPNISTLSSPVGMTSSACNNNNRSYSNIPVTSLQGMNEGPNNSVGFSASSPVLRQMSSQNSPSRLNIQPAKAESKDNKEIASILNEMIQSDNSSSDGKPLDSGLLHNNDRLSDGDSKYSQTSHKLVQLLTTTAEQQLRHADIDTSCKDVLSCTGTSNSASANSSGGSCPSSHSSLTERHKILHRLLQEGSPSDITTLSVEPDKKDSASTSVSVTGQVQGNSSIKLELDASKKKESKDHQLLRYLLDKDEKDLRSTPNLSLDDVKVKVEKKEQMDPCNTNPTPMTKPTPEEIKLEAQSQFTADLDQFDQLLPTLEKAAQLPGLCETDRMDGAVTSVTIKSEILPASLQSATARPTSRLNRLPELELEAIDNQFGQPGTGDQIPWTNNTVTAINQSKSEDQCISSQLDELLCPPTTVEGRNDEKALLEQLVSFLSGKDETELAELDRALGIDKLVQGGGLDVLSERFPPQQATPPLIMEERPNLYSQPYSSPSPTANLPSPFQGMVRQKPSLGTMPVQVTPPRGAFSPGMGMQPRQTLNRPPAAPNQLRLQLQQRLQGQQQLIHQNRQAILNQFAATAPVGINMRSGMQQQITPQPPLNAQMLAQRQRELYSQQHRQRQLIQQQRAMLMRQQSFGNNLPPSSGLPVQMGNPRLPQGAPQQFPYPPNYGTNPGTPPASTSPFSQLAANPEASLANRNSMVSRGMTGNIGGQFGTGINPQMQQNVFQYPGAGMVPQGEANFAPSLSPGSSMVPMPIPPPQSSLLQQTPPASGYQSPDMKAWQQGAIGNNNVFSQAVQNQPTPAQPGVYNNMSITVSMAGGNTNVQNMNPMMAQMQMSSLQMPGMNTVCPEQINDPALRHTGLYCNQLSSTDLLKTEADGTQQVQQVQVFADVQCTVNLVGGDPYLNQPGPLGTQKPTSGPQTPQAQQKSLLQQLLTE
Chain of Peroxisome proliferator-activated receptor gamma/Nuclear receptor coactivator 3 (P37231 whole entry): as the sequence (P37231 whole entry) above
Chain of Peroxisome proliferator-activated receptor gamma/Nuclear receptor coactivator 3 (Q9Y6Q9 whole entry, further chain): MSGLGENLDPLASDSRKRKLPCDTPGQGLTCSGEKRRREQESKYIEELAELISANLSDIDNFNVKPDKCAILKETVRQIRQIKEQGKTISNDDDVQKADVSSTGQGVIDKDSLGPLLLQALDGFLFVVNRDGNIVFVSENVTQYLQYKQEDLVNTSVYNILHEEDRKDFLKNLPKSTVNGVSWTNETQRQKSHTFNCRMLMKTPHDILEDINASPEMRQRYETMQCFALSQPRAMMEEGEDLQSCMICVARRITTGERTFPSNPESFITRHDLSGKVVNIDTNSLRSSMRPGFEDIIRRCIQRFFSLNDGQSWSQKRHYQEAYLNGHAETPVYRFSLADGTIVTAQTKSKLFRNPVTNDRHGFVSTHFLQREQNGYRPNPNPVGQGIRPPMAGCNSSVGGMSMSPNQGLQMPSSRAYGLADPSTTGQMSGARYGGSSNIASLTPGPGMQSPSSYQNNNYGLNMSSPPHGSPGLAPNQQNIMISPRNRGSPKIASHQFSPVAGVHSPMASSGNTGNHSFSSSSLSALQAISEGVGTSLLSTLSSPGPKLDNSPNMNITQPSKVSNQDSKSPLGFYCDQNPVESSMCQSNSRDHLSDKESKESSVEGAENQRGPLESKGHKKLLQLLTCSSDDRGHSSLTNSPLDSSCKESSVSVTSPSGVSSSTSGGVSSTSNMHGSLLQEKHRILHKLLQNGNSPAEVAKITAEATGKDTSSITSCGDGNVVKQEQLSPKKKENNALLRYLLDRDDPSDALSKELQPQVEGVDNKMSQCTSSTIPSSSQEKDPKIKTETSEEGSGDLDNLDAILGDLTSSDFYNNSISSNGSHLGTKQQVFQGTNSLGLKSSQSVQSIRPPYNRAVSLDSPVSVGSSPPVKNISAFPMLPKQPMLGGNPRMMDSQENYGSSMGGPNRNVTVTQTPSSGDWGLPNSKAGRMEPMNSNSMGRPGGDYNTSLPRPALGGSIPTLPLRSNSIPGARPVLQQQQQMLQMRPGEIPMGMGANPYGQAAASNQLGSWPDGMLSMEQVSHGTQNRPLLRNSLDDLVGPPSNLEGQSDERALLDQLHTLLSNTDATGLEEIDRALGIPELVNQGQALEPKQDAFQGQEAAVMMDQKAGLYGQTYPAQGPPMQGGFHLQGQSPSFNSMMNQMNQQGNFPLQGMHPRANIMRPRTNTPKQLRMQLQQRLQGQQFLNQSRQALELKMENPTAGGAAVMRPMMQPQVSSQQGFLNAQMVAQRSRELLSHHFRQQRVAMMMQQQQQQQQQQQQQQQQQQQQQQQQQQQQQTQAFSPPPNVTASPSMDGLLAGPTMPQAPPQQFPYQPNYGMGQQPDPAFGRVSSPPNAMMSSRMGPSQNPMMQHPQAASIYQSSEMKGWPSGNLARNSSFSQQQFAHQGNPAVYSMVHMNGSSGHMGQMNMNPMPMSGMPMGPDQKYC

Row | EC50 [1] | EC50 [2] | EC50 [3] | EC50 [4] | SMILES | AC50 (INS1 [5]) | AC50 (INS1 [6]) | AC50 (INS1 [7])
1 | > 79.4 µM (not active) | > 79.4 µM (not active) | > 79.4 µM (not active) | 8.85 µM (inactive) | Cc1cc(C)n(-c2nc(SCC(=O)Nc3nccs3)c3c4c(sc3n2)COC(C)(C)C4)n1 | – | – | –
2 | – | – | – | – | COc1ccc(S(=O)(=O)N(C)C[C@H]2Oc3c(NC(=O)Nc4cccc5ccccc45)cccc3C(=O)N([C@@H](C)CO)C[C@@H]2C)cc1 | 85 µM (active) | > 260 µM (inactive) | 104 µM (active)
